Laboratory results taken from PubChem BioAssay (NCI).
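Interpolation was linear, between the two tested concentrations surrounding the appropriate level; five concentrations were tested over 48 hours in 96-well plates. At the GI50, growth is halved. TGI marks complete inhibition of growth.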

How the values were obtained:
Experiment in all cases: NCI anticancer screen, dose series, 48 h
[1] = test system: OVCAR-4 ovarian
[2] = test system: IGROV1 ovarian
[3] = test system: SW-620 colon
[4] = test system: COLO 205 colon
[5] = test system: SK-MEL-5 melanoma
[6] = test system: KM12 colon
[7] = test system: 786-0 renal
[8] = test system: MCF7 breast
[9] = test system: HL-60(TB) leukemia
[10] = test system: A549 NSCLC

Compound: CC(=O)O[C@H](C[C@H](C(C)C)N(C)C(=O)[C@@H](NC(=O)[C@H]1CCCCN1C)C(C)C)c1nc(C(=O)N[C@@H](Cc2ccccc2)C[C@H](C)C(=O)O)c(CCOCc2ccccc2)s1
- GI50 [1]: 0.00242 µM
- TGI [1]: > 10 µM
- GI50 [2]: 0.00109 µM
- TGI [2]: > 10 µM
- GI50 [3]: < 0.001 µM
- TGI [3]: > 10 µM
- GI50 [4]: < 0.001 µM
- TGI [4]: < 0.001 µM
- GI50 [5]: < 0.001 µM
- TGI [5]: 0.00159 µM
- GI50 [6]: < 0.001 µM
- GI50 [7]: < 0.001 µM
- TGI [7]: > 10 µM
- GI50 [8]: < 0.001 µM
- TGI [8]: > 10 µM
- GI50 [9]: < 0.001 µM
- TGI [9]: < 0.001 µM
- GI50 [10]: < 0.001 µM
- TGI [10]: > 10 µM

Compound: O=C(Nc1ccc(-c2ccccc2)cc1)C1CCN(S(=O)(=O)c2ccccc2Cl)CC1
- GI50 [1]: 22.3 µM
- TGI [1]: > 100 µM
- GI50 [2]: 21.4 µM
- TGI [2]: > 100 µM
- GI50 [3]: 82.3 µM
- TGI [3]: > 100 µM
- GI50 [4]: > 100 µM
- TGI [4]: > 100 µM
- GI50 [5]: 69.3 µM
- TGI [5]: > 100 µM
- GI50 [6]: 36.7 µM
- TGI [6]: > 100 µM
- GI50 [7]: 23.6 µM
- TGI [7]: 77.9 µM
- GI50 [8]: 41.2 µM
- TGI [8]: > 100 µM
- GI50 [9]: > 100 µM
- TGI [9]: > 100 µM
- GI50 [10]: 29.5 µM
- TGI [10]: > 100 µM

Compound: CCn1c(CO)nn(-c2cc(O[C@@H](C)C(F)(F)F)c(C(=O)Nc3c(F)cccc3Cl)cc2F)c1=O
- TGI [1]: > 100 µM
- GI50 [2]: < 0.0113 µM
- TGI [2]: > 100 µM
- GI50 [3]: < 0.01 µM
- TGI [3]: > 100 µM
- GI50 [4]: < 0.01 µM
- TGI [4]: > 100 µM
- GI50 [5]: < 0.0152 µM
- TGI [5]: > 39.1 µM
- GI50 [6]: < 0.01 µM
- TGI [6]: > 100 µM
- GI50 [7]: < 0.0197 µM
- TGI [7]: > 78 µM
- GI50 [8]: < 0.01 µM
- TGI [8]: > 100 µM
- GI50 [9]: 0.0357 µM
- TGI [9]: > 46.7 µM
- GI50 [10]: < 0.01 µM
- TGI [10]: > 100 µM

Compound: Cc1cc(I)cc(CN(C)CCCN2CCOCC2)c1O
- GI50 [1]: 63.2 µM
- TGI [1]: > 100 µM
- GI50 [2]: 20.7 µM
- TGI [2]: 72.6 µM
- GI50 [3]: 33.5 µM
- TGI [3]: > 100 µM
- GI50 [4]: 14.1 µM
- TGI [4]: 29 µM
- GI50 [5]: 15.5 µM
- TGI [5]: 28.9 µM
- GI50 [6]: 29.6 µM
- TGI [6]: > 100 µM
- GI50 [7]: 27.6 µM
- TGI [7]: > 100 µM
- GI50 [8]: 32.7 µM
- TGI [8]: > 100 µM
- GI50 [9]: 27.7 µM
- TGI [9]: 72 µM
- GI50 [10]: 59.4 µM
- TGI [10]: > 100 µM

Compound: [Au+].[Au+].[Au+].[c-]1nccn1Cc1ccccc1.[c-]1nccn1Cc1ccccc1.[c-]1nccn1Cc1ccccc1
- GI50 [1]: 12.7 µM
- TGI [1]: 44.1 µM
- GI50 [2]: 3.48 µM
- TGI [2]: 7.92 µM
- GI50 [3]: 7.78 µM
- TGI [3]: > 19.7 µM
- GI50 [4]: 1.74 µM
- TGI [4]: 3.16 µM
- GI50 [5]: 2.93 µM
- TGI [5]: 6.15 µM
- GI50 [6]: 7.75 µM
- TGI [6]: 39.9 µM
- GI50 [7]: 1.73 µM
- TGI [7]: 3.11 µM
- GI50 [8]: 10.7 µM
- TGI [8]: 39 µM
- GI50 [9]: 3.16 µM
- TGI [9]: 16 µM
- GI50 [10]: 24.7 µM
- TGI [10]: 65.4 µM

Compound: CCC(C)(C)c1ccc(OCCCCCCN2CCNCC2)cc1
- GI50 [1]: 1.96 µM
- TGI [1]: 5.03 µM
- GI50 [2]: 2.63 µM
- TGI [2]: 7.29 µM
- GI50 [3]: 1.95 µM
- TGI [3]: 3.97 µM
- GI50 [4]: 1.77 µM
- TGI [4]: 3.51 µM
- GI50 [5]: 1.76 µM
- TGI [5]: 3.24 µM
- GI50 [6]: 1.88 µM
- TGI [6]: 3.5 µM
- GI50 [7]: 1.73 µM
- TGI [7]: 3.23 µM
- GI50 [8]: 1.56 µM
- TGI [8]: 3.2 µM
- GI50 [9]: 1.76 µM
- TGI [9]: 3.65 µM
- GI50 [10]: 3.77 µM
- TGI [10]: 13.7 µM

Compound: COc1ccc2c(c1)C(C)Cc1c(ncnc1-n1c(C)nc3ccccc31)N2C (configuration not stated)
- GI50 [1]: 6.24 µM
- TGI [1]: 61.8 µM
- GI50 [2]: 6.3 µM
- TGI [2]: 36.2 µM
- GI50 [3]: 6.24 µM
- TGI [3]: 28 µM
- GI50 [4]: 2.76 µM
- TGI [4]: 11.1 µM
- GI50 [5]: 3.42 µM
- TGI [5]: 13 µM
- GI50 [6]: 2.59 µM
- TGI [6]: 17.8 µM
- GI50 [7]: 5.83 µM
- TGI [7]: 29.2 µM
- GI50 [8]: 1.88 µM
- TGI [8]: 19.9 µM
- GI50 [9]: 2.59 µM
- TGI [9]: 9.7 µM
- GI50 [10]: 4.82 µM
- TGI [10]: 24.7 µM

Compound: Cc1c(C2=C(Br)C(=O)N(C)C2=O)c(=O)n(C)c(=O)n1C
- TGI [1]: > 100 µM
- TGI [2]: 36.5 µM
- TGI [3]: > 100 µM
- TGI [4]: 34.5 µM
- TGI [5]: 52.1 µM
- TGI [6]: > 100 µM
- TGI [7]: 32.1 µM
- TGI [8]: 37.1 µM
- TGI [9]: 41 µM
- TGI [10]: > 100 µM

Compound: CCCCC1(CN2CCOCC2)S/C(=N/c2nc(CC(=O)OCC)cs2)NC1=O (configuration not stated)
- GI50 [1]: 33 µM
- TGI [1]: > 100 µM
- GI50 [2]: 55.3 µM
- TGI [2]: > 100 µM
- GI50 [3]: 35.9 µM
- TGI [3]: > 100 µM
- GI50 [4]: 30.1 µM
- TGI [4]: > 100 µM
- GI50 [5]: 24.2 µM
- TGI [5]: 75.2 µM
- GI50 [6]: 27.7 µM
- TGI [6]: > 100 µM
- GI50 [7]: 37.9 µM
- TGI [7]: > 100 µM
- GI50 [8]: 34.4 µM
- TGI [8]: > 100 µM
- GI50 [9]: 30.2 µM
- TGI [9]: 62.5 µM
- GI50 [10]: 33.4 µM
- TGI [10]: > 100 µM

Compound: O=[N+]([O-])c1ccc2c(c1)C(c1ccccc1Cl)=Nc1cn[nH]c1N2
- GI50 [1]: 12.5 µM
- TGI [1]: > 25 µM
- GI50 [2]: > 23.5 µM
- TGI [2]: > 25 µM
- GI50 [3]: 15.8 µM
- TGI [3]: > 25 µM
- GI50 [4]: 9.43 µM
- TGI [4]: > 25 µM
- GI50 [5]: 11.3 µM
- TGI [5]: > 25 µM
- GI50 [6]: 12.1 µM
- TGI [6]: > 25 µM
- GI50 [7]: 11.8 µM
- TGI [7]: > 25 µM
- GI50 [8]: 10.9 µM
- TGI [8]: > 25 µM
- GI50 [9]: 14.4 µM
- TGI [9]: > 25 µM
- GI50 [10]: 19.7 µM
- TGI [10]: > 25 µM

Compound: Nc1nc(SN=Nc2ccc(S(N)(=O)=O)cc2)c2[nH]cnc2n1
- GI50 [1]: 0.581 µM
- TGI [1]: > 51.1 µM
- GI50 [2]: 1.65 µM
- TGI [2]: > 100 µM
- GI50 [3]: 0.659 µM
- TGI [3]: > 100 µM
- GI50 [4]: 1.42 µM
- TGI [4]: 3.6 µM
- GI50 [5]: 1.26 µM
- TGI [5]: 5.97 µM
- GI50 [6]: 1.64 µM
- TGI [6]: 20 µM
- GI50 [7]: 0.407 µM
- TGI [7]: > 100 µM
- GI50 [8]: 0.289 µM
- TGI [8]: > 100 µM
- GI50 [9]: 2.18 µM
- TGI [9]: > 53.6 µM
- GI50 [10]: 3.06 µM
- TGI [10]: > 100 µM

Compound: O=C(/C=C/c1cc(CN2CCOCC2)c(O)c2ncccc12)c1cc(CN2CCOCC2)c(O)c2ncccc12
- GI50 [1]: 0.0804 µM
- TGI [1]: > 100 µM
- GI50 [2]: 0.0682 µM
- TGI [2]: > 66.6 µM
- GI50 [3]: < 0.0186 µM
- TGI [3]: > 100 µM
- GI50 [4]: 0.0842 µM
- TGI [4]: > 100 µM
- GI50 [5]: 0.0237 µM
- TGI [5]: 0.0607 µM
- GI50 [6]: 0.0437 µM
- TGI [6]: > 100 µM
- GI50 [7]: 0.0802 µM
- TGI [7]: > 32.6 µM
- GI50 [8]: < 0.0175 µM
- TGI [8]: > 100 µM
- GI50 [9]: 0.0309 µM
- GI50 [10]: 0.0285 µM
- TGI [10]: > 100 µM

Compound: CC(C)CNC(=O)O
- TGI [1]: > 100 µM
- TGI [2]: > 100 µM
- TGI [3]: > 100 µM
- TGI [4]: > 100 µM
- TGI [5]: > 100 µM
- TGI [6]: > 100 µM
- TGI [7]: > 100 µM
- TGI [8]: > 100 µM
- TGI [9]: > 100 µM
- TGI [10]: > 100 µM

Compound: C=C1C(=O)O[C@H]2[C@H]1CC/C(COC(=O)c1ccc(Cl)nc1)=C\CC[C@@]1(C)O[C@@H]21
- GI50 [1]: 4.49 µM
- TGI [1]: 18.4 µM
- GI50 [2]: 1.43 µM
- TGI [2]: 6.2 µM
- GI50 [3]: 1.23 µM
- TGI [3]: 2.96 µM
- GI50 [4]: 1.74 µM
- TGI [4]: 3.96 µM
- GI50 [5]: 3.23 µM
- TGI [5]: 11.1 µM
- GI50 [6]: 3.96 µM
- TGI [6]: 16.7 µM
- GI50 [7]: 1.75 µM
- TGI [7]: 3.53 µM
- GI50 [8]: 1.08 µM
- TGI [8]: 3.72 µM
- GI50 [9]: 1.57 µM
- TGI [9]: 4.72 µM
- GI50 [10]: 11.3 µM
- TGI [10]: 26.2 µM

Compound: O=C(Nc1ccc(Br)cc1)c1ccc(Cl)c(Cl)c1
- GI50 [1]: 3.78 µM
- TGI [1]: > 100 µM
- GI50 [2]: 2.85 µM
- TGI [2]: > 100 µM
- GI50 [3]: 3.59 µM
- TGI [3]: > 100 µM
- GI50 [4]: 1.81 µM
- TGI [4]: 3.7 µM
- GI50 [5]: 3.45 µM
- TGI [5]: > 100 µM
- GI50 [6]: 3.16 µM
- TGI [6]: > 100 µM
- GI50 [7]: 3.92 µM
- TGI [7]: > 100 µM
- GI50 [8]: 2.19 µM
- TGI [8]: > 31.4 µM
- GI50 [9]: 2.14 µM
- TGI [9]: 7.37 µM
- GI50 [10]: 3.76 µM
- TGI [10]: > 100 µM
